In article PMC11875816 (Heliyon, 2025):

Columns and labels:
acetylcholine (ACh) = assay: Brain tissue acetylcholine (ACh) level; set-up: species or system ICR male mice; conditions: mouse, in vivo
From the text: (§1) Seven-week-old ICR male mice (25−30 g body weight range) were purchased from the Samtaco BIO, KOREA (Osan-si, Gyeonggi-do, Korea). […] All efforts were made to minimize suffering and the number of animals used. One day before dissection, only water was provided and food was fasted. Acclimatized experimental animals were grouped into seven containing 7 mice each (Table 1 and Fig. 1).
(§2) Prepare the test substance at a concentration appropriate for each test using purified water. […] Amyloid beta (Aβ1-42) was prepared and administered following standard protocols. BSEP was orally administered at doses of 200 mg/kg/day and 400 mg/kg/day for one week before and after Aβ1-42 injection, each at a volume of 200 μL. Following intravenous administration, broccoli extract was orally administered at the same doses for two weeks.
(§3) Aβ1-42 ([…]) was surgically injected into the brain ventricle of anesthetized mice (intravenous [IV] injection of xylazine [5 mg/kg] and ketamine [50 mg/kg]). The skull was precisely punctured at specific coordinates using a small drill, and amyloid beta was injected deeply into the brain using a microinjector. The control group underwent the same procedure with saline injections instead. Following surgery, the incision sites were disinfected and sutured, and the animals were allowed to recover in a cage.

[1] = following the consumption of broccoli sprouts or supplements; cited from earlier work
TNF-α = TNF-α gene expression in LPS-induced RAW 264.7 macrophages (qPCR); type: cell-based, murine
Method: RAW 264.7 cells at passage 3 were seeded at 1 × 10^5 cells/mL to each well of a 6-well cell culture plate. The cells were cultured until it reached 70−80 % confluency and media were changing every 2 days. Upon confluency, removed the old media and cells were pre-treated with 1 mL non-serum media for 10−15 min in the incubator. All controls and samples, dilutions are prepared in non-serum media. Removed non-serum media and added with LPS (1 μg/mL) in non-serum media for 24 h. Next day, removed the LPS containing media and washed once with 1 × PBS and then the cells were treated with SFN solutions for 1 h. Removed the treatment solution, washed twice with 1 × PBS, pH 7.4. The cells were dissociated and collected by sedimentation (1500 rpm, 6 min).
The total RNA content was extracted following the TRIzol method according to the manufacturer's protocol. Quantification of mRNAs abundance was determined using 1-step reverse transcription real-time quantitative PCR with the QuantiTect SYBR Green RT-PCR Kit (Qiagen, Germany), performed on a Rotor-Gene Q Real-Time system (Qiagen, Germany). […] Target gene expression was normalized to constitutively expressed ACT-β gene, and the relative quantity of target gene mRNAs was expressed as 2^−ΔΔCt using the relative comparative threshold cycle method as previously described [[33], [34], [35]]. […]

[2] = In vivo oral absorption of SFN and BSE in rats (pharmacokinetics); set-up: species or system Sprague–Dawley rats; conditions: for AUCinf / AUClast / Cmax / MRT / T1/2 / Tmax: plasma SFN
Method: Sprague–Dawley rats (males, 6–7 weeks old, 200–250 g) were purchased from G-bio (Gwangju, Republic of Korea). The animals were housed under standard conditions in terms of temperature (23 ± 2 °C), relative humidity (RH; 55 ± 10 %), and light (12/12 h light/dark cycle). The animals had ad libitum access to a standard laboratory diet (Nestlé Purina PetCare Research, St. Louis, MO, USA) and ion-sterilized tap water. Ethical approval for this study was obtained from the IACUC of Mokpo National University (Jeonnam, Republic of Korea; approval no. MNU-IACUC-2023-009).
To examine the distinction of pharmacokinetic parameters of SFN after IV injection and oral administration of SFN or BSEP (containing 3 % SFN), Sprague–Dawley rats were orally administered 400 μL of SFN dissolved in 0.5 % sodium CMC (5 mg/kg, SFN-oral) or aqueous solution of BSEP (equivalent to 5 mg/kg SFN, BSEP-oral). To calculate the oral bioavailability, rats were intravenously injected with 200 μL of SFN (5 mg/kg SFN dissolved in 0.5 % sodium CMC) via the femoral vein. Then, 200-μL blood samples were collected from the cannulated femoral artery at predetermined time points and immediately centrifuged at 13,000×g for 5 min at 4 °C. The separated plasma samples were kept frozen at −80 °C until analysis.
To determine the plasma concentrations of SFN, the working solutions of SFN of 20, 15, 10, 5, 2, 1, 0.6, and 0.2 μg/mL, and 5 μg/mL phenylethyl isothiocyanate (internal standard, IS) were prepared in acetonitrile. Then, 10 μL of each working solution and 10 μL of IS were spiked with 180 μL of rat blank plasma for standard solution. Separately, 180 μL of each plasma sample was spiked with 10 μL of IS solution and 10 μL of acetonitrile. Next, 200 μL of a mixture of acetonitrile, water, and ethanol (25:25:50, v/v/v) was added to each plasma sample spiked with IS, followed by vortex mixing. After centrifugation at 13,000×g for 5 min at room temperature, the supernatant was transferred to another vial for further extraction using an HLB SPF μElution plate (Waters Corp., Milford, MA, USA). Each well of the SPE plate was conditioned and equilibrated by 200 μL of methanol and water, respectively. Then, the 400 μL of the collected supernatant was added to each well of the plate and aspirated under a 5 H g vacuum. After washing with 200 μL of water and 50 % methanol, each well was eluted with 400 μL (200 μL × 2 times) of acetonitrile.
Each eluted sample (10 μL) was injected into a UPLC system (ACQUITY UPLC; Waters Corp.) equipped with an ACQUITY UPLC BEH C18 column (2.1 × 50 mm, 1.7 μm; Waters Corp.) at 50 °C. SFN and IS were eluted by the mobile phase (10 mM ammonium acetate in water:0.1 % formic acid in acetonitrile [3:7, v/v]) at a flow rate of 0.6 mL/min. A mass spectrometer (Xevo TQ-S; Waters Corp.) was used for ionization of SFN or the IS (in positive ion multiple reaction-monitoring mode) at an electrospray voltage of 3.0 kV, with a source temperature of 120 °C, desolvation temperature of 500 °C, and desolvation gas flow rate of 800 L/h. SFN quantification was performed by reference to the m/z transition 178.0 → 114.0 at a cone voltage of 24 V and collision energy of 30 eV; for IS, the m/z transition was 164.0 → 130.0 at a cone voltage of 23 V and collision energy of 22 eV.

Aβ1-42-induced AD mice [3] = assay: Morris water maze test; type: in vivo, ICR male mice; conditions: Aβ1-42 AD mice; for average escape latency time over the three days: AD group 42.7 ± 9.13, normal 27.66 ± 3.97
From the text: as §1, §2, §3
(§4) The water maze test evaluates the spatial memory of experimental animals by filling a circular pool (120 cm diameter × 60 cm hight) with water to a depth of 30 cm (maintained at 23 ± 2 °C). An escape zone (10 cm diameter) is designated in one section of the four quadrants, with the platform positioned 1 cm below the water surface and made invisible with skim milk powder. If the animal fails to locate the platform within 60 s, it is gently guided there and allowed to familiarize itself for 20 s. The test is conducted at 30-min intervals, four times daily for three consecutive days. Observations are recorded using a ceiling-mounted camera and analyzed using SMART 3.0 software (Panlab S.L., Barcelona, Spain).

[4] = rodents, within a few hours post-administration, oral or intraperitoneal; cited from earlier work
[5] = target: acetylcholinesterase (AChE) (Mus musculus, UniProt P21836); conditions: SFN 10 mg/kg oral
Method: All efforts were made to minimize suffering and the number of animals used. One day before dissection, only water was provided and food was fasted. Acclimatized experimental animals were grouped into seven containing 7 mice each (Table 1 and Fig. 1).
as §2, §3

Aβ1-42-induced AD mice [6] = assay: Brain tissue TUNEL assay (hippocampal apoptosis); type: in vivo, ICR male mice; conditions: Aβ1-42 AD mice; SFN 10 mg/kg oral; AD group 40.3 ± 10.4
From the text: as §1, §2, §3

[7] = cited from earlier work
[8] = cited from earlier work; remark: listed apart in the source
Aβ1-42-induced AD mice [9] = assay: Passive avoidance test; type: in vivo, ICR male mice
From the text: as §1, §2, §3
The passive avoidance experiment is a commonly used method for assessing enhancements in learning and memory capabilities. The experiment was conducted in a room with noise levels below 60 dB and dim lighting. The measuring instrument, Shuttle Box Test Package (Med Associates Inc., Vermont, USA), consisting of two rooms of equal size (25 × 25 cm). An automatic guillotine door was installed on the wall separating the two rooms. One room was illuminated (20 W light bulb), while the other remained dark. The mice were trained to associate the dark environment with an aversive stimulus. In the experiment (n = 3), upon entry into the dark room, an electric shock (foot-shock) was administered by passing a current of 3 mA for 5 s through a stainless-steel grid beneath the room. This procedure facilitated the mouse's recognition of the association between the dark environment and the aversive stimulus.

Aβ1-42-induced AD mice [10] = assay: Retention test of Morris water maze; type: in vivo; conditions: 60 s free swimming, platform removed, control group 9.51 ± 5.2
Method: as §4

[11] = single oral dose 5 mg/kg SFN (SFN in 0.5 % sodium CMC; BSEP aqueous solution equivalent to 5 mg/kg SFN)

Chain of acetylcholinesterase (AChE) (P21836 32-614): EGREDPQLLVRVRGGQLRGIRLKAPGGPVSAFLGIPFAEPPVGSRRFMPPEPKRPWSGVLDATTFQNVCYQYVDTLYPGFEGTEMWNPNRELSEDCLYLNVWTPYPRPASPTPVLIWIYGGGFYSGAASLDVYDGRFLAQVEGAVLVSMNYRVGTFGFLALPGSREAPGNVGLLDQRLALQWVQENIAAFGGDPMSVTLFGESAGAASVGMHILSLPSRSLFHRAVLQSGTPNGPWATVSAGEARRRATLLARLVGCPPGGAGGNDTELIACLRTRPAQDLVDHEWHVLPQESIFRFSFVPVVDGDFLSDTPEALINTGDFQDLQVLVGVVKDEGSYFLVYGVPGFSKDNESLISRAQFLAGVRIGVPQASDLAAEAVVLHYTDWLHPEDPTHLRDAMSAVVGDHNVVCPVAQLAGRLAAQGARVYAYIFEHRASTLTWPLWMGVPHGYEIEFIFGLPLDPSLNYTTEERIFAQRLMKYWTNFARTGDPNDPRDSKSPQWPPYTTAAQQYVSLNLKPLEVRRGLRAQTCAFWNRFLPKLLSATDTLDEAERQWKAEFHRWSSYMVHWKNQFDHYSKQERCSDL

1-isothiocyanato-4-methylsulfonylbutane [SFN]
brain ACh level (acetylcholine (ACh)): 1.2 ± 0.1 nmol/µL | SFN level detected in human plasma [1]: nanomolar to low micromolar levels | reduction of TNF-α expression versus control (LPS stimulation only) (TNF-α; 1:100 dilution (of SFN 210 ppm; of 1 % BSEP)): 30–40% | TNF-α gene expression (TNF-α; undiluted (positive control SFN 210 ppm; 1 % BSEP solution), LPS 1 μg/mL): significant downregulation | Bioavailability ([2]; single IV dose 5 mg/kg SFN (reference)): 100% | AUCinf ([2]; single IV dose 5 mg/kg SFN): 390 ± 33.7 ng·h/mL | AUClast ([2]; single IV dose 5 mg/kg SFN): 380 ± 27.5 ng·h/mL | Cmax ([2]; single IV dose 5 mg/kg SFN): 414 ± 65.1 ng/mL | MRT ([2]; single IV dose 5 mg/kg SFN): 0.971 ± 0.224 h | T1/2 ([2]; single IV dose 5 mg/kg SFN): 1.35 ± 0.806 h | Tmax ([2]; single IV dose 5 mg/kg SFN): 0.170 ± 0.000 h | AUCinf [2, 11]: 259 ± 39.6 ng·h/mL | AUClast [2, 11]: 241 ± 46.1 ng·h/mL | Cmax [2, 11]: 96.2 ± 13.1 ng/mL | MRT [2, 11]: 3.14 ± 0.835 h | T1/2 [2, 11]: 1.82 ± 0.574 h | Tmax [2, 11]: 1.00 ± 0.000 h | Bioavailability ([2]; single oral dose 5 mg/kg SFN (SFN in 0.5 % sodium CMC; BSEP aqueous solution equivalent to 5 mg/kg SFN), versus SFN-IV): 63.4 ± 12.1% | escape latency times by the third day (Aβ1-42-induced AD mice [3]; SFN 10 mg/kg oral): comparable to those of the normal control group | average escape latency time over the three days (Aβ1-42-induced AD mice [3]; SFN 10 mg/kg oral): 28.01 ± 2.95 s | SFN brain concentrations [4]: 0.5 to 2 µM | brain AChE activity relative to normal group (100 %) ([5]; AD control 162 %): 105% | brain AChE activity ([5]; AD control 1707.1 ± 97.12, normal 1057.44 ± 75.41): 1104.65 ± 123.41 mU/mL | number of TUNEL-positive cells in the hippocampus (Aβ1-42-induced AD mice [6]): 19.0 ± 5.2 cells | doses that may lead to toxicity [7]: exceeding 150 mg/kg body weight | typical urinary excretion, of the administered dose [8]: 70−90% | time spent in the brightly lit room before entering the dark room (Aβ1-42-induced AD mice [9]; SFN 10 mg/kg oral, AD control 19): 90 s | time spent in the brightly lit room before entering the dark room (Aβ1-42-induced AD mice [9]; SFN 10 mg/kg oral, AD control 51): 166 s | time spent in the brightly lit room before entering the dark room (Aβ1-42-induced AD mice [9]; SFN 10 mg/kg oral, first of three values, AD control 25): 37 s | time spent in the quadrant where the platform was previously located (Aβ1-42-induced AD mice [10]; SFN 10 mg/kg): 8.83 ± 5.92 s

COc1cc2c(cc1OC)C(=O)C(CC1CCN(Cc3ccccc3)CC1)C2 (stereo not drawn) [donepezil]
escape latency times by the third day (Aβ1-42-induced AD mice [3]; donepezil 5 mg/kg oral): comparable to those of the normal control group | average escape latency time over the three days (Aβ1-42-induced AD mice [3]; donepezil 5 mg/kg oral): 34.97 ± 3.21 s | time spent in the brightly lit room before entering the dark room (Aβ1-42-induced AD mice [9]; donepezil 5 mg/kg oral, AD control 19): 100 s | time spent in the brightly lit room before entering the dark room (Aβ1-42-induced AD mice [9]; donepezil 5 mg/kg oral, AD control 51): 149 s | time spent in the brightly lit room before entering the dark room (Aβ1-42-induced AD mice [9]; donepezil 5 mg/kg oral, first of three values, AD control 25): 29 s | time spent in the quadrant where the platform was previously located (Aβ1-42-induced AD mice [10]; donepezil 5 mg/kg): 16.26 ± 4.61 s
